Laboratory results published in ChEMBL document CHEMBL3774345, “Synthesis of new diarylamides with pyrimidinyl pyridine scaffold and evaluation of their anti-proliferative effect on cancer cell lines” (Bioorg Med Chem Lett, 2016).

Tests used:
[1] = Cytotoxicity against human IGROV1 cells assessed as cell growth at 10^-6 M after 24 hrs by SRB assay; type: functional; conditions: IGROV-1, 24 h, read-out: Activity
[2] = Cytotoxicity against human HCT15 cells assessed as cell growth at 10^-6 M after 24 hrs by SRB assay; type: functional; conditions: HCT-15, 24 h, read-out: Activity
[3] = Cytotoxicity against human HOP92 cells assessed as cell growth at 10^-6 M after 24 hrs by SRB assay; type: functional; conditions: HOP-92, 24 h, read-out: Activity
CCRF-CEM [4] = test: Cytotoxicity against human CCRF-CEM cells assessed as cell growth at 10^-8 M after 24 hrs by SRB assay; type: functional; conditions: read-out: Activity
[5] = Cytotoxicity against human Caki1 cells assessed as cell growth at 10^-6 M after 24 hrs by SRB assay; type: functional; conditions: CAKI-1, 24 h, read-out: Activity
KM12 [6] = test: Cytotoxicity against human KM12 cells assessed as cell growth at 10^-8 M after 24 hrs by SRB assay; type: functional; conditions: KM12, 24 h, read-out: Activity
NCI-H460 = test: Cytotoxicity against human NCI-H460 cells assessed as cell growth at 10^-4 M after 24 hrs by SRB assay; type: functional; conditions: NCI-H460, 24 h, read-out: Activity
NCI-H322M = test: Cytotoxicity against human NCI-H322M cells assessed as cell growth at 10^-5 M after 24 hrs by SRB assay; type: functional; conditions: read-out: Activity
[7] = Cytotoxicity against human IGROV1 cells after 24 hrs by SRB assay; type: functional; conditions: IGROV-1, 24 h
[8] = Cytotoxicity against human SKOV3 cells assessed as cell growth at 10^-7 M after 24 hrs by SRB assay; type: functional; conditions: SK-OV-3, 24 h, read-out: Activity
KM12 [9] = test: Cytotoxicity against human KM12 cells assessed as cell growth at 10^-7 M after 24 hrs by SRB assay; type: functional; conditions: KM12, 24 h, read-out: Activity
[10] = Cytotoxicity against human SNB75 cells assessed as cell growth at 10^-4 M after 24 hrs by SRB assay; type: functional; conditions: SNB-75, 24 h, read-out: Activity
[11] = Cytotoxicity against human UO31 cells assessed as cell growth at 10^-5 M after 24 hrs by SRB assay; type: functional; conditions: UO-31, 24 h, read-out: Activity
[12] = Cytotoxicity against human RPMI8226 cells assessed as cell growth at 10^-4 M after 24 hrs by SRB assay; type: functional; conditions: RPMI-8226, 24 h, read-out: Activity
[13] = Cytotoxicity against human SW620 cells assessed as cell growth at 10^-7 M after 24 hrs by SRB assay; type: functional; conditions: SW-620, 24 h, read-out: Activity
[14] = Cytotoxicity against human COLO205 cells after 24 hrs by SRB assay; type: functional, cell-based; conditions: COLO 205, 24 h
[15] = Cytotoxicity against human LOXIMVI cells assessed as cell growth at 10^-7 M after 24 hrs by SRB assay; type: functional; conditions: LOX IMVI, read-out: Activity
A549 = test: Cytotoxicity against human A549 cells after 24 hrs by SRB assay; type: functional; conditions: A549, 24 h
SR = test: Cytotoxicity against human SR cells after 24 hrs by SRB assay; type: functional
[16] = Cytotoxicity against human SF295 cells assessed as cell growth at 10^-8 M after 24 hrs by SRB assay; type: functional; conditions: SF-295, 24 h, read-out: Activity
[17] = Cytotoxicity against human OVCAR4 cells after 24 hrs by SRB assay; type: functional; conditions: OVCAR-4, 24 h
A498 [18] = test: Cytotoxicity against human A498 cells assessed as cell growth at 10^-5 M after 24 hrs by SRB assay; type: functional; conditions: A498, 24 h, read-out: Activity
A498 [19] = test: Cytotoxicity against human A498 cells after 24 hrs by SRB assay; type: functional; conditions: A498, 24 h
[20] = Cytotoxicity against human OVCAR4 cells assessed as cell growth at 10^-5 M after 24 hrs by SRB assay; type: functional; conditions: OVCAR-4, 24 h, read-out: Activity
[21] = Cytotoxicity against human DU145 cells after 24 hrs by SRB assay; type: functional; conditions: DU-145, 24 h
[22] = Cytotoxicity against human OVCAR8 cells after 24 hrs by SRB assay; type: functional; conditions: OVCAR-8, 24 h
[23] = Cytotoxicity against human HCC2998 cells assessed as cell growth at 10^-5 M after 24 hrs by SRB assay; type: functional; conditions: HCC 2998, 24 h, read-out: Activity
MCF7 = test: Cytotoxicity against human MCF7 cells after 24 hrs by SRB assay; type: functional; conditions: MCF7, 24 h
[24] = Cytotoxicity against human MOLT4 cells assessed as cell growth at 10^-5 M after 24 hrs by SRB assay; type: functional; conditions: MOLT-4, 24 h, read-out: Activity
[25] = Cytotoxicity against human HOP92 cells after 24 hrs by SRB assay; type: functional, cell-based; conditions: HOP-92, 24 h
CCRF-CEM [26] = test: Cytotoxicity against human CCRF-CEM cells assessed as cell growth at 10^-7 M after 24 hrs by SRB assay; type: functional; conditions: read-out: Activity
[27] = read-out: LC50 (the source's name)
[28] = read-out: pLC50 (the source's name) (converted)

## O=C(Nc1cc(-c2cccnc2)nc(NCCCN2CCOCC2)n1)c1cc(Br)cc(C(F)(F)F)c1
[1]
  growth at 1 µM: 92%
[2]
  growth at 1 µM: 82%
[3]
  growth at 1 µM: 75%
CCRF-CEM [4]
  growth at 0.01 µM: 100%
[5]
  growth at 1 µM: 82%
KM12 [6]
  growth at 0.01 µM: 99%
NCI-H460
  growth at 100 µM: -75%
NCI-H322M
  growth at 10 µM: 19%
[7]; read-out: GI50
  GI50: 4.67 µM
[7]; [27]
  CC50: 60.5 µM
[7]; read-out: TGI
  TGI: 19.5 µM
[7]; read-out: pGI50 (converted)
  GI50: 4.68 µM
[7]; [28]
  CC50: 60.3 µM
[7]; read-out: pTGI (converted)
  TGI: 19.5 µM
[8]
  growth at 0.1 µM: 93%
KM12 [9]
  growth at 0.1 µM: 99%
[10]
  growth at 100 µM: -99%
[11]
  growth at 10 µM: -61%
[12]
  growth at 100 µM: -24%
[13]
  growth at 0.1 µM: 96%
[14]; read-out: GI50
  GI50: 1.77 µM
[14]; [27]
  CC50: 6.79 µM
[14]; read-out: TGI
  TGI: 3.47 µM
[14]; read-out: pGI50 (converted)
  GI50: 1.78 µM
[14]; [28]
  CC50: 6.76 µM
[14]; read-out: pTGI (converted)
  TGI: 3.47 µM
[15]
  growth at 0.1 µM: 92%
A549; read-out: GI50
  GI50: 10.1 µM
A549; [27]
  CC50: 48.8 µM
A549; read-out: TGI
  TGI: 22.2 µM
A549; read-out: pGI50 (converted)
  GI50: 10 µM
A549; [28]
  CC50: 49 µM
A549; read-out: pTGI (converted)
  TGI: 22.4 µM
SR; read-out: GI50
  GI50: 2.6 µM
SR; [27]
  CC50: > 100 µM
SR; read-out: TGI
  TGI: 41.7 µM
SR; read-out: pGI50 (converted)
  GI50: 2.63 µM
SR; [28]
  CC50: > 100 µM
SR; read-out: pTGI (converted)
  TGI: 41.7 µM
[16]
  growth at 0.01 µM: 97%
[17]; read-out: GI50
  GI50: 3.26 µM
[17]; [27]
  CC50: 39.9 µM
[17]; read-out: TGI
  TGI: 14.5 µM
[17]; read-out: pGI50 (converted)
  GI50: 3.24 µM
[17]; [28]
  CC50: 39.8 µM
[17]; read-out: pTGI (converted)
  TGI: 14.5 µM
A498 [18]
  growth at 10 µM: 13%
A498 [19]; read-out: GI50
  GI50: 3.43 µM
A498 [19]; [27]
  CC50: 40.5 µM
A498 [19]; read-out: TGI
  TGI: 13.4 µM
A498 [19]; read-out: pGI50 (converted)
  GI50: 3.39 µM
A498 [19]; [28]
  CC50: 40.7 µM
A498 [19]; read-out: pTGI (converted)
  TGI: 13.5 µM
[20]
  growth at 10 µM: 18%
[21]; read-out: GI50
  GI50: 6.7 µM
[21]; [27]
  CC50: 43.7 µM
[21]; read-out: TGI
  TGI: 19.1 µM
[21]; read-out: pGI50 (converted)
  GI50: 6.76 µM
[21]; [28]
  CC50: 43.7 µM
[21]; read-out: pTGI (converted)
  TGI: 19.1 µM
[22]; read-out: GI50
  GI50: 2.98 µM
[22]; [27]
  CC50: 39.4 µM
[22]; read-out: TGI
  TGI: 8.59 µM
[22]; read-out: pGI50 (converted)
  GI50: 2.95 µM
[22]; [28]
  CC50: 39.8 µM
[22]; read-out: pTGI (converted)
  TGI: 8.51 µM
[23]
  growth at 10 µM: -77%
MCF7; read-out: GI50
  GI50: 2.17 µM
MCF7; [27]
  CC50: 44.8 µM
MCF7; read-out: TGI
  TGI: 9.22 µM
MCF7; read-out: pGI50 (converted)
  GI50: 2.24 µM
MCF7; [28]
  CC50: 44.7 µM
MCF7; read-out: pTGI (converted)
  TGI: 9.12 µM
[24]
  growth at 10 µM: 9%
[25]
  IC50: 1.97 µM
[25]; read-out: GI50
  GI50: 1.97 µM
[25]; [27]
  CC50: 29.9 µM
[25]; read-out: TGI
  TGI: 7.62 µM
[25]; read-out: pGI50 (converted)
  GI50: 1.95 µM
[25]; [28]
  CC50: 30.2 µM
[25]; read-out: pTGI (converted)
  TGI: 7.59 µM
CCRF-CEM [26]
  growth at 0.1 µM: 105%
